According to publication PMC9898036, “VIP152 is a selective CDK9 inhibitor with pre-clinical in vitro and in vivo efficacy in chronic lymphocytic leukemia” (Leukemia, 2022):

Assays:
[1] = biological target: T1, CDK9 in complex with Cyclin K (Homo sapiens, UniProt P50750); test: HotSpot radiometric kinase assay; type: biochemical; details: 10-dose series from 0.5 nM to 10 µM; vs dinaciclib, KB-0742, atuveciclib
T1 construct: host or cells: HEK293
Experimental: We next compared VIP152 to other CDK inhibitors currently in development. […] The compounds were tested in a 10-dose series from 0.5 nM to 10 µM against CDK9 in complex with Cyclin T1/T2/K, CDK7/Cyclin H, and GSK3α/β. […]
HotSpot Kinase Assay Protocol
Compounds tested via HotSpot Kinase Assay were sent to ReactionBio for the experiment. The […]
Kinase substrate was added to reaction buffer (20 mM Hepes (pH 7.5), 10 mM MgCl2, 1 mM EGTA, 0.01% Brij35, 0.02 mg/ml BSA, 0.1 mM Na3VO4, 2 mM DTT, 1% DMSO). Cofactors and kinases were gently added to the reaction buffer. Compounds to be tested were dissolved in 100% DMSO and were delivered into the kinase reaction mixture by Acoustic technology (Echo550; nanoliter range) and incubated for 20 min at room temperature. 32P-ATP was delivered into the reaction mixture and the reaction was allowed to proceed for 2 hours. Kinase activity was detected by P81 filter-binding method.

[2] = biological target: T1, CDK9 in complex with Cyclin K; test: NanoBRET target engagement assay (HEK293); type: cell-based
[3] = biological target: Cannabinoid CB1 (Homo sapiens, UniProt P21554); test: Eurofins Diversity Panel; type: binding; details: hum, Conc. 10 μM
[4] = biological target: Muscarinic M1 (Homo sapiens, UniProt P11229); test: Eurofins Diversity Panel; type: binding; details: hum, Conc. 10 μM
Chain of Muscarinic M1 (P11229 whole entry): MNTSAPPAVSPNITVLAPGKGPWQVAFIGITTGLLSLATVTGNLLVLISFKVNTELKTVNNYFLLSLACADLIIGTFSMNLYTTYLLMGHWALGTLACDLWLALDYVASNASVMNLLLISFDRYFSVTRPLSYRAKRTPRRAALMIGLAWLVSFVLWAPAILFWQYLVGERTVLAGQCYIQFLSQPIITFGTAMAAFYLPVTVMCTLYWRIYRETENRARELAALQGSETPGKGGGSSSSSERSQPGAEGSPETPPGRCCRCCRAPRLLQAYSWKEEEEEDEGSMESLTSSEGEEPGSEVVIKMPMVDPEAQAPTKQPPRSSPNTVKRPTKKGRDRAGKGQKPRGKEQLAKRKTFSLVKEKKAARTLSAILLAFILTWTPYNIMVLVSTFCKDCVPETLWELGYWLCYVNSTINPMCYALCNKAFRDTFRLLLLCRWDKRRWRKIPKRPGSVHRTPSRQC

[5] = biological target: Potassium Channel [KATP] (Cricetus cricetus, UniProt Q09427); test: Eurofins Diversity Panel; type: binding, hamster; details: ham, Conc. 10 μM
Experimental: The structure and synthesis of VIP152 were recently described by Lücking et al.. (Fig. 1A); however, the selectivity of the molecule in cellular systems has yet to be explored. […] We also performed this experiment at 1000 nM, where CDK9 was inhibited at 99%. […] We found a strong concordance between our data and those of Lücking when comparing the most inhibited kinases. Potential off-target effects of VIP152 were next tested in vitro at a concentration of 10 µM for off-target activity against a broad range of receptors, transporters, ion channels, and enzymes (n = 138) using the Eurofins Diversity Panel.

[6] = biological target: RSK3(Kin.Dom.1-N-terminal) (Homo sapiens, UniProt Q15349); test: KINOMEscan: RSK3(Kin.Dom.1-N-terminal); type: binding; details: 100 nM, read-out: Percent Control
[7] = biological target: SGK (Homo sapiens, UniProt O00141); test: KINOMEscan: SGK; type: binding; details: 100 nM, read-out: Percent Control
[8] = biological target: SIK (Homo sapiens, UniProt P57059); test: KINOMEscan: SIK; type: binding; details: 100 nM, read-out: Percent Control
[9] = biological target: STK36 (Homo sapiens, UniProt Q9NRP7); test: KINOMEscan: STK36; type: binding; details: 100 nM, read-out: Percent Control
Chain of STK36 (Q9NRP7 whole entry): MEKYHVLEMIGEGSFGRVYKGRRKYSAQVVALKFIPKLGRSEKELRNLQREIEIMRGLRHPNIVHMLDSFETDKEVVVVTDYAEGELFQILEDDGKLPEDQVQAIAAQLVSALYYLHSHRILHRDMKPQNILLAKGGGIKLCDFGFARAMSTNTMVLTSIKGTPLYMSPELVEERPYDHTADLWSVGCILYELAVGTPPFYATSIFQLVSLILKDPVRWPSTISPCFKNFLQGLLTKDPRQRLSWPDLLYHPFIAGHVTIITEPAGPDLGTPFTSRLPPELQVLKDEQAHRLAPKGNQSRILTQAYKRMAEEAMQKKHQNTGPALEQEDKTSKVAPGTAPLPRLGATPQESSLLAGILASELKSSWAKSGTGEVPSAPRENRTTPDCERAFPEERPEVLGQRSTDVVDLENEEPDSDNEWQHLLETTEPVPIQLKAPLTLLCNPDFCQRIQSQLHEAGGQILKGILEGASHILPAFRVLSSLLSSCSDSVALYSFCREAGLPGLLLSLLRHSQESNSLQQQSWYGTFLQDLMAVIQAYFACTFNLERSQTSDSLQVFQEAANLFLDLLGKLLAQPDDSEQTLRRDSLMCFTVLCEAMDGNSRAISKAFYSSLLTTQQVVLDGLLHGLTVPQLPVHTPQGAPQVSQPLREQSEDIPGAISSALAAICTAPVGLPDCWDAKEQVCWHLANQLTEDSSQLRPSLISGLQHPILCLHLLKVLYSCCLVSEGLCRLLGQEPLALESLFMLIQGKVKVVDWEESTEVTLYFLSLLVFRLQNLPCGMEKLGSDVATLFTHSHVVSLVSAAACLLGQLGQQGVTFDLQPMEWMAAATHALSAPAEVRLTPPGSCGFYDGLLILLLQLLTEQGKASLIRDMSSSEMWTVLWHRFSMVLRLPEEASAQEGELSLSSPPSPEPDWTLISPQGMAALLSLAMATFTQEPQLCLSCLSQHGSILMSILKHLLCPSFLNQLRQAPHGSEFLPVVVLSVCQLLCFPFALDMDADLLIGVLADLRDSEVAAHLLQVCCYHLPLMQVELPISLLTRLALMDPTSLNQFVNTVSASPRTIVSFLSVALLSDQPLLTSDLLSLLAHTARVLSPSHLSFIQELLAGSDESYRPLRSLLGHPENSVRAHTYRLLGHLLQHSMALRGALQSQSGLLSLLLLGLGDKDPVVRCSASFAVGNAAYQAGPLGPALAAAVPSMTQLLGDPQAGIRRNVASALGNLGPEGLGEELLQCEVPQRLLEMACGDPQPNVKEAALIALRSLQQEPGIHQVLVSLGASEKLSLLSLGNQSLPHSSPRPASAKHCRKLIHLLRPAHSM

[10] = biological target: TESK1 (Homo sapiens, UniProt Q15569); test: KINOMEscan: TESK1; type: binding; details: 100 nM, read-out: Percent Control
[11] = biological target: TIE1 (Homo sapiens, UniProt P35590); test: KINOMEscan: TIE1; type: binding; details: 100 nM, read-out: Percent Control
[12] = biological target: YANK3 (Homo sapiens, UniProt Q86UX6); test: KINOMEscan: YANK3; type: binding; details: 100 nM, read-out: Percent Control
[13] = biological target: AURKA (Homo sapiens, UniProt O14965); test: KINOMEscan: AURKA; type: binding; details: 1000 nM, read-out: Percent Control
[14] = biological target: BRK (Homo sapiens, UniProt Q13882); test: KINOMEscan: BRK; type: binding; details: 1000 nM, read-out: Percent Control
[15] = biological target: CDK2 (Homo sapiens, UniProt P24941); test: KINOMEscan: CDK2; type: binding; details: 1000 nM, read-out: Percent Control
[16] = biological target: CDK5 (Homo sapiens, UniProt Q00535); test: KINOMEscan: CDK5; type: binding; details: 1000 nM, read-out: Percent Control
[17] = biological target: CSNK1G3 (Homo sapiens, UniProt Q9Y6M4); test: KINOMEscan: CSNK1G3; type: binding; details: 1000 nM, read-out: Percent Control
[18] = biological target: DDR1 (Homo sapiens, UniProt Q08345); test: KINOMEscan: DDR1; type: binding; details: 1000 nM, read-out: Percent Control
[19] = biological target: DDR2 (Homo sapiens, UniProt Q16832); test: KINOMEscan: DDR2; type: binding; details: 1000 nM, read-out: Percent Control
[20] = biological target: EPHB4 (Homo sapiens, UniProt P54760); test: KINOMEscan: EPHB4; type: binding; details: 1000 nM, read-out: Percent Control
[21] = biological target: FGFR3(G697C) (Homo sapiens, UniProt P22607, G697C); test: KINOMEscan: FGFR3(G697C); type: binding; details: 1000 nM, read-out: Percent Control
Chain of FGFR3(G697C) (P22607 23-806 G697C): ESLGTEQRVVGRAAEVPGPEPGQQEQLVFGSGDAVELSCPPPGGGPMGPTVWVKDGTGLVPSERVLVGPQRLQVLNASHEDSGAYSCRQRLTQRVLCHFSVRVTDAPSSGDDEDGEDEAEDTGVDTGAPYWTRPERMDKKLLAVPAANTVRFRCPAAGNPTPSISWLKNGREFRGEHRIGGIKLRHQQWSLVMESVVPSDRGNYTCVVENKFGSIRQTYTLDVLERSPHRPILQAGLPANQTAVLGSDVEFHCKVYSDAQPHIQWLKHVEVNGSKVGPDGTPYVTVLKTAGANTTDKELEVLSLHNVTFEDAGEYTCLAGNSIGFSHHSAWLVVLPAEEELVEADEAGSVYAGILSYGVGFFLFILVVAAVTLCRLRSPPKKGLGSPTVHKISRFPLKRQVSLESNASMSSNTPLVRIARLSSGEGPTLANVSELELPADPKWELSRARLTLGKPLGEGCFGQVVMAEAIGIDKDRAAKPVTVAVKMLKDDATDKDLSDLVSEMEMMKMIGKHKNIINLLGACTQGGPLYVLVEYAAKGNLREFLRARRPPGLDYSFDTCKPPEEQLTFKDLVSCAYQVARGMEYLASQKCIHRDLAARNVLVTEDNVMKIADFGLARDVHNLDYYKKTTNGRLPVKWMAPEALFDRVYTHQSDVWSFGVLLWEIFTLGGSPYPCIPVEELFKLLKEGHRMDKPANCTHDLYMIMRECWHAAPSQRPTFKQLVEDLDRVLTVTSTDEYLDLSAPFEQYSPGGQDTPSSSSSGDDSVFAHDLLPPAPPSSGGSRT

[22] = biological target: FGFR4 (Homo sapiens, UniProt P22455); test: KINOMEscan: FGFR4; type: binding; details: 1000 nM, read-out: Percent Control
[23] = biological target: FYN (Homo sapiens, UniProt P06241); test: KINOMEscan: FYN; type: binding; details: 1000 nM, read-out: Percent Control
Chain of FYN (P06241 whole entry): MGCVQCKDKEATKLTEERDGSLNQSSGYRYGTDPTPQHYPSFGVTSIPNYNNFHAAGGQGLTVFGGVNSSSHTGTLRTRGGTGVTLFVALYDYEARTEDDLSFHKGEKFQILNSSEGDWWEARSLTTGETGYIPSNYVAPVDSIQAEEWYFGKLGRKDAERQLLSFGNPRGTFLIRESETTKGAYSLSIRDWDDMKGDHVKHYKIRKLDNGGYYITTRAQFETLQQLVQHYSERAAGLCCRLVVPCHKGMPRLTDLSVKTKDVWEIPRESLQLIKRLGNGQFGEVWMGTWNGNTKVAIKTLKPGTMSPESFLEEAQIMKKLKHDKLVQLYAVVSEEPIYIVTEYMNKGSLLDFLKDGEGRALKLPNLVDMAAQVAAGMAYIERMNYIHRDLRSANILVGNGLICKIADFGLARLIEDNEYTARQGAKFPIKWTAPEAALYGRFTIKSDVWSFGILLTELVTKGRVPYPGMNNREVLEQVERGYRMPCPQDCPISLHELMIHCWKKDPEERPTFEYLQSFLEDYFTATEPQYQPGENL

[24] = biological target: LZK (Homo sapiens, UniProt O43283); test: KINOMEscan: LZK; type: binding; details: 1000 nM, read-out: Percent Control
Chain of LZK (O43283 whole entry): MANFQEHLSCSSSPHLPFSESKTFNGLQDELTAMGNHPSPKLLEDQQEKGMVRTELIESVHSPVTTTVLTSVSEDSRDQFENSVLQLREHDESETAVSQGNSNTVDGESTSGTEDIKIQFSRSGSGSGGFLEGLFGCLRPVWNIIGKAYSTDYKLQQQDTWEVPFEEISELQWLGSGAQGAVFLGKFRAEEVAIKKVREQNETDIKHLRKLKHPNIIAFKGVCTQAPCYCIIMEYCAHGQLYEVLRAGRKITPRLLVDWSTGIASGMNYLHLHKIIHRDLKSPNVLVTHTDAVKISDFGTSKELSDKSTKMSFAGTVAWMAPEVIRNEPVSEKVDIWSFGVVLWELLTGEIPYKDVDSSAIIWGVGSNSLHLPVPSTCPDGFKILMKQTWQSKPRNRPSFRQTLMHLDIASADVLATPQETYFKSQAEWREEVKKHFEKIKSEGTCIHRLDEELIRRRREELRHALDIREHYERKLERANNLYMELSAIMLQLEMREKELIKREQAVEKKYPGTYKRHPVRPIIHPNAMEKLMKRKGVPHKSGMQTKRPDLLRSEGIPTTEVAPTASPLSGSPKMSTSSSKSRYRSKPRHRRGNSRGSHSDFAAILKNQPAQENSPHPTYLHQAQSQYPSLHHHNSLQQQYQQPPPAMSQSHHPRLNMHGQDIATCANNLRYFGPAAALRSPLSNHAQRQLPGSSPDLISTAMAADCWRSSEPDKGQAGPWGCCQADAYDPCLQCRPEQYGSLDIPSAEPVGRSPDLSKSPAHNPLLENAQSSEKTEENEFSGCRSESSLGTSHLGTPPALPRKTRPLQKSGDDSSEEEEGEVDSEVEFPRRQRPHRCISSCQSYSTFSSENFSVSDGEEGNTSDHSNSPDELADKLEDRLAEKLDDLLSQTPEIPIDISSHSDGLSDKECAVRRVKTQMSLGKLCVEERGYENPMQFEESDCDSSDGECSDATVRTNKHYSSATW

[25] = biological target: MAP3K1 (Homo sapiens, UniProt Q13233); test: KINOMEscan: MAP3K1; type: binding; details: 1000 nM, read-out: Percent Control
[26] = biological target: MTOR (Homo sapiens, UniProt P42345); test: KINOMEscan: MTOR; type: binding; details: 1000 nM, read-out: Percent Control

T1 sequence (P50750 whole entry): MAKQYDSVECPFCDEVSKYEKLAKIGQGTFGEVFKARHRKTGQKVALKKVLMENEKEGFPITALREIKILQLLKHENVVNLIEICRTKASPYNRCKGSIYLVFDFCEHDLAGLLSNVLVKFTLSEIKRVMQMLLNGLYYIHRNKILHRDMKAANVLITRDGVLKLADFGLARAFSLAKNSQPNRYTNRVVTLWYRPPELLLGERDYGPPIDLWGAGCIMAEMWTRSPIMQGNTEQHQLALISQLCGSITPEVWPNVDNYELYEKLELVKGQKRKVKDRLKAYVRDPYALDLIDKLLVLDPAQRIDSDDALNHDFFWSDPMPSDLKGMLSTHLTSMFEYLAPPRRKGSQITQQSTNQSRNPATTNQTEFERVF
T1 sequence (O75909 whole entry partner): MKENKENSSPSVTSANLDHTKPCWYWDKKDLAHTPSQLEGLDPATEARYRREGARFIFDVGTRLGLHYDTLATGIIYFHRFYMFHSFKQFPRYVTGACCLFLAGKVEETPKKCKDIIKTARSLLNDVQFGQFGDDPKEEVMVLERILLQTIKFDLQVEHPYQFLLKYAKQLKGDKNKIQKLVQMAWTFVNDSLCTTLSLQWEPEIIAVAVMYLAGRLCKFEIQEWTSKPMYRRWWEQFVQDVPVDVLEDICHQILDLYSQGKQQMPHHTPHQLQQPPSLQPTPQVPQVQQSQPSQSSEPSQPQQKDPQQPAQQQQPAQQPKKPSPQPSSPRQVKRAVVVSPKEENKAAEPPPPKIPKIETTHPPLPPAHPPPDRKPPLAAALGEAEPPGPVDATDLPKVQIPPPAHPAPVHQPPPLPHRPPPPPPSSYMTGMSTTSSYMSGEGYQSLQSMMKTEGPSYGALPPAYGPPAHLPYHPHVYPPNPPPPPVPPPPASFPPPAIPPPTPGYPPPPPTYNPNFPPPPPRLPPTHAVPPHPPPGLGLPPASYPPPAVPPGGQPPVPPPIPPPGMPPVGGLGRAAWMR

`COc1cc(F)ccc1-c1cc(Nc2cc(CS(C)(=N)=O)ccn2)ncc1F` (centres unmarked) [VIP152] was tested, and the “potency versus the other inhibitors tested” value [1] was “higher potency”, the “potency versus the other inhibitors” value [2] was “higher potency” and the inhibition at 10 µM [3] was 16%. The inhibition at 10 µM [4] was -10%, the inhibition at 10 µM [5] was -19% and the remaining binding at 0.1 µM [6] was 100%. It also gave a remaining binding at 0.1 µM [7] of 100%, a remaining binding at 0.1 µM [8] of 100% and a remaining binding at 0.1 µM [9] of 100%. The remaining binding at 0.1 µM [10] was 100%, the remaining binding at 0.1 µM [11] was 100% and the remaining binding at 0.1 µM [12] was 99%. For the same molecule, the remaining binding at 1 µM [13] was 41%, the remaining binding at 1 µM [14] was 79% and the remaining binding at 1 µM [15] was 51%. It also gave a remaining binding at 1 µM [16] of 83%, a remaining binding at 1 µM [17] of 97% and a remaining binding at 1 µM [18] of 29%. The remaining binding at 1 µM [19] was 27%, the remaining binding at 1 µM [20] was 100% and the remaining binding at 1 µM [21] was 63%. It also gave a remaining binding at 1 µM [22] of 76%, a remaining binding at 1 µM [23] of 91% and a remaining binding at 1 µM [24] of 100%. For the same molecule, the remaining binding at 1 µM [25] was 78% and the remaining binding at 1 µM [26] was 100%.
